Laboratory results reported in patent US20250296939A1, “BENZOTHIOPHENE COMPOUND” (Kyoto Pharmaceutical Industries, Ltd., priority 2022, published 2025).

Columns and labels:
[1] = tested on: NQO1 activity in rat kidney; experiment: NQO1 activity assay in rat kidney (single administration); format: in vivo; settings: SD rats (male), oral 3 mg/kg single administration; for NQO1 activity 24 hr later: 24 hr after administration; for NQO1 activity 48 hr later: 48 hr after administration
Procedure: Experimental Example 3: NQO1 Activity Assay in Rat Kidney (Single Administration)
The test compound solution for administration was prepared by dissolving or suspending the test compound in 0.5 w/v % methylcellulose solution.
The test compound was administered orally (3 mg/kg, 2 mL/kg) to SD rats (male, Japan SLC). The solvent group was used as a control group. The test compound group was anesthetized with isoflurane 24 and 48 hr after administration, and the control group was anesthetized with isoflurane 24 hr after administration, and the rats were euthanized by abdominal aortotomy with blood release. The right kidney was immediately removed, and the renal cortex and medullary portion of the kidney were cut out for measurement of NQO1 activity.
Homogenization buffer (10 mM Tris-HCl, 250 mM sucrose, pH 7.4) and assay buffer (25 mM Tris-HCl, 0.7 mg/mL BSA, pH 7.4) were prepared.
1 mL of homogenization buffer was added to the collected kidney samples, and the organs were homogenized uniformly in ice using a Polytron homogenizer (PHYSCOTRON, Microtec Co. Ltd.) or TissueLyser II (QIAGEN). Homogenized samples were centrifuged (MX-305, TOMY) at 9000×g for 20 minutes at 4° C. The supernatant was then scalped with homogenization buffer to approximately 2 ml and ultracentrifuged (centrifuge; OptimaL-100XP, rotor; 50.4 Ti, Beckman Coulter) at 100,000×g for 60 min at 4° C. The protein concentration of the supernatant was measured with the Protein Assay BCA kit (#06385-00, Nacalai Tesque), and samples were diluted to 5 μg protein/30 μL with homogenization buffer. 2,6-Dichlorophenolindophenol (DCPIP) reaction buffer (assay buffer with 200 μM NADPH and 160 μM DCPIP, containing 1/1000 volume of DMSO or 20 μM dicoumarol DMSO solution) was prepared immediately before the measurement.
The 230 μL of each concentration of calibration solution was added to a 96-well plate (CORNING, 9017). To 30 μL of the sample solution was added 200 μL of DMSO-containing DCPIP reaction buffer or dicoumarol-containing DCPIP reaction buffer. The absorbance at 600 nm was immediately measured on a SpectraMax PLUS384 (Molecular devices) at 1 minute intervals for 10 minutes. […] A regression line was used to create the calibration curve.
The difference between the DCPIP decrease in the wells with DMSO-containing DCPIP reaction buffer and the DCPIP decrease in the wells with dicoumarol-containing DCPIP reaction buffer was divided by the amount of protein (mg) and time (min) to obtain NQO1 activity (nmol/mg/min). In Table 4 below, the NQO1 activity of the test compound-administered groups is expressed as a percentage of the control group.

[2] = biological target: GST-fused human Keap1 (amino acid residues: 325-642) protein (Homo sapiens (Human), UniProt Q14145); experiment: FP assay (in vitro): inhibition of binding between Nrf2 and Keap1 by fluorescence polarization; settings: 20 nM GST-fused human Keap1, 10 nM FITC-labeled Nrf2 peptide, 2 hr at room temperature
Chain of GST-fused human Keap1 (amino acid residues: 325-642) protein (Q14145 325-624 limits assumed): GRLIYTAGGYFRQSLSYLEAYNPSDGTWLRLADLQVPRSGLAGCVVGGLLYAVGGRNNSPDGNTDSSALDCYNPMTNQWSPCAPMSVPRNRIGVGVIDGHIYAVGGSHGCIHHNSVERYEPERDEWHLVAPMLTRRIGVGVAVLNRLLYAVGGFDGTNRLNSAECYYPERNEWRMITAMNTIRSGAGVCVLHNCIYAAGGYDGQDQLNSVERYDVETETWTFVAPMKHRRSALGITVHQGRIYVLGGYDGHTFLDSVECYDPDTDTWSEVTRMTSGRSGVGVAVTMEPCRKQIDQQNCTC

[3] = tested on: NQO1 activity in Hepa1c1c7 cells; experiment: NAD(P)H: quinone oxidoreductase-1 (NQO1) enzyme induction assay (in vitro); format: cell-based, mouse; settings: Mus musculus, Hepa-1c1c7, NQO1 activity upon addition of 400 nM of test compound, about 48 hr, ratio from the base without the compound
Method in brief: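 Mouse Hepa1c1c7 hepatoma cells were treated with 400 nM compound for about 48 h, then lysed with digitonin/EDTA. NQO1 activity was measured as menadione-mediated MTT reduction with a G6P/G6PDH NADPH-regenerating system, stopped with dicoumarol, and read at A610. Values are the activity ratio versus untreated base wells.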

| IC50 [2] [nM] | SMILES | NQO1 activity 24 hr later [1] | NQO1 activity 48 hr later [1] | fold induction at 0.4 µM [3] |
| --- | --- | --- | --- | --- |
| 10 to 30 | Cc1c([C@H](CC(=O)O)c2cc(CN3Cc4nc(O)ccc4O[C@H](C4CC4)C3)c3sccc3c2)ccc2c1nnn2C [Example 5, (3R)-3-(7-{[(2R)-2-Cyclopropyl-7-hydroxy-2,3-dihydropyrido[2,3-f][1,4]oxazepin-4(5H)-yl]methyl}-1-benzothiophen-5-yl)-3-(1,4-dimethyl-1H-benzotriazol-5-yl)propanoic acid] | 9.4 percentage of the control group | 10.9 percentage of the control group | > 5 |
| ≤ 10 | CC[C@@H]1CN(Cc2cc([C@@H](c3ccc4c(nnn4C)c3C)C(C)(C)C(=O)O)cc3ccsc23)Cc2nc(O)ccc2O1 [Example 11, (3S)-3-(1,4-Dimethyl-1H-benzotriazol-5-yl)-3-(7-{[(2R)-2-ethyl-7-hydroxy-2,3-dihydropyrido[2,3-f][1,4]oxazepin-4(5H)-yl]methyl}-1-benzothiophen-5-yl)-2,2-dimethylpropanoic acid] | 9.3 percentage of the control group | 11.0 percentage of the control group | > 5 |
| 10 to 30 | Cc1c([C@H](c2cc(CN3Cc4nc(O)ccc4OC4(CC4)C3)c3sccc3c2)C(C)(C)C(=O)O)ccc2c1nnn2C [Example 13, (3S)-3-(1,4-Dimethyl-1H-benzotriazol-5-yl)-3-{7-[(7′-hydroxy-3′H-spiro[cyclopropane-1,2′-pyrido[2,3-f][1,4]oxazepin]-4′(5′H)-yl)methyl]-1-benzothiophen-5-yl}-2,2-dimethylpropanoic acid] | 6.5 percentage of the control group | 11.7 percentage of the control group | > 5 |
